Target: human metabotropic Glutamate 4 receptor (mGluR4) (Homo sapiens (Human), UniProt Q14833)
Experiment: Assay A: in vitro testing of mGluR4 potency (glutamate-induced cAMP lowering, HTRF cAMP)
Format: cell-based
Conditions: HEK293 cells overexpressing human mGluR4; 10 uM L-glutamic acid, 1 uM forskolin; compounds of the present invention
Procedure: A. In Vitro Testing of mGluR4 Potency
The in vitro activity of the compounds according to the invention may be investigated as follows:
The HEK293 cell overexpressing the human metabotropic Glutamate 4 receptor are thawed at 37° C. and immediately diluted with cell culture medium. After centrifugation, the cell pellet is re-suspended in medium and then distributed from a stirred spinner flask into the wells of the assay plate. The plates are incubated for one hour at room temperature before they are incubated for 24 hours at 37° C./5% CO2. After washing the cells in the plate three times with 80 uL HBSS/HEPES buffer (10 uL buffer remained in the wells after washing), 5 uL per well of compounds diluted in HBSS/HEPES buffer containing 0.2% BSA (final concentration: 0.1%) and 1 mM IBMX (final concentration: 0.5 mM) are added to the wells of the assay plate. Thereafter 5 uL per well of L-Glutamic acid (final concentration: 10 uM), forskolin (final concentration: 1 uM) and 1 mM IBMX (final concentration: 0.5 mM) dissolved in HBSS/HEPES buffer containing 0.2% BSA (final concentration: 0.1%) are added to the assay plate (final DMSO concentration: 1%). Several wells of the assay plate are used either for the positive and the negative controls or for the cAMP standard curve. The assay plate is incubated for 30 minutes at room temperature. Then 5 ul per well of Anti-cAMP-Antibody-d2 solution and 5 ul per well of cAMP-Europium Cryptate dilution are added to all wells of the plate and the plate is incubated another 60 minutes light protected at room temperature. The emission at 615 nm and 665 nm (Excitation wavelength: 320 nm) are measured on the EnVision™ reader (Perkin Elmer). The ratio between the emission at 665 nm and 615 is calculated by the reader. The whole assay is performed in the dark or under green light.
The cAMP standard is prepared by diluting the cAMP stock solution with HBSS/Hepes buffer: 5 μl/well of the cAMP dilutions (in HBSS/Hepes buffer containing 1 mM IBMX and 0.2% BSA—final concentration: 0.5 mM IBMX and 0.1% BSA) are added to 10 ul/well HBSS/Hepes buffer plus 5 ul/well 4% DMSO in HBSS/Hepes containing 0.2% BSA (final DMSO concentration: 1%—like in the wells containing compounds) in the wells of the assay plate. The final cAMP concentrations in the assay plate are: 0, 0.17, 0.69, 2.78, 11.1, 44.5, 178, and 712 nM (two wells/cAMP concentration).
Each assay microtiter plate contained also wells with vehicle controls instead of compound as controls for L-Glutamic acid induced signal (negative control; 100% CTL; 10 uM L-Glutamic acid+1 uM forskolin+0.5 mM IBMX+1% DMSO) and wells with vehicle controls without L-Glutamic acid as controls for non-specific changes in signal (positive control; 0% CTL; 0 uM L-Glutamic acid+1 uM forskolin+0.5 mM IBMX+1% DMSO).
The analysis of the data is performed by the calculation the ratio between the emission at 665 nm and the emission at 615 nm (Em665/Em615 ratio). Thereafter the signals of the compounds are normalized using the positive and negative controls by the following formula:
PoC=100×((Signal Sample−Positive Control)/(Negative Control−Positive Control))

human metabotropic Glutamate 4 receptor (mGluR4), sequence (Q14833 33-912): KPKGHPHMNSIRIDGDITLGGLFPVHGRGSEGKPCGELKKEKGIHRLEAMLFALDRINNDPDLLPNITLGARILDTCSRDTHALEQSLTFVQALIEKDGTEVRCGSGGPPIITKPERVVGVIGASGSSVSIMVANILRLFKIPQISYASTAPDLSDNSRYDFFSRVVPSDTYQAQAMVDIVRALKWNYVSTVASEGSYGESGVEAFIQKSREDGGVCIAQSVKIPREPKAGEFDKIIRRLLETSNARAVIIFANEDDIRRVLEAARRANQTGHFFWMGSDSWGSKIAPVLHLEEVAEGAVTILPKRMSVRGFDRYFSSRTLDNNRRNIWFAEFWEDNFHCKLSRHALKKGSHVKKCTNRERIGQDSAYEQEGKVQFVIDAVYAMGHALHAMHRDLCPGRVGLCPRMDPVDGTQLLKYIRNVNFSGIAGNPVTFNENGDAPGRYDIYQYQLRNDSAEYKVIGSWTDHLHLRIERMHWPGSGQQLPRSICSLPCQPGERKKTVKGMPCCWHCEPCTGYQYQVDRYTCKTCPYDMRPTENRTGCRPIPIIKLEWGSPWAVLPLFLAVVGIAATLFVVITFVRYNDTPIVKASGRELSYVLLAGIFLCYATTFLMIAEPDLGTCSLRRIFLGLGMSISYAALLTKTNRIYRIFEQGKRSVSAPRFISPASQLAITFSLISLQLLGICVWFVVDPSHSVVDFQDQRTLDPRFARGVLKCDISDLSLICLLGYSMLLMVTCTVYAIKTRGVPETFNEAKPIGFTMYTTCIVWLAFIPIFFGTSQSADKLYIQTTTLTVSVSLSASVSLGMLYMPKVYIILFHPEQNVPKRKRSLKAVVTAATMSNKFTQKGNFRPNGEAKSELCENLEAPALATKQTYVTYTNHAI

| Compound | IC50 |
| --- | --- |
| 5-(difluoromethyl)-N-[(1S)-1-(1-ethyl-5-fluoro-1H-1,3-benzodiazol-2-yl)-2-methylpropyl]pyrazine-2-carboxamide [Example 59] | 0.004 µM |
| COCCn1c(C(NC(=O)c2cnc(C)cn2)C2CCCO2)nc2cc(C(F)(F)F)ccc21 (single isomer, unassigned) [Example 19-1, N-{[1-(2-methoxyethyl)-5-(trifluoromethyl)-1H-1,3-benzodiazol-2-yl](oxolan-2-yl)methyl}-5-methylpyrazine-2-carboxamide] | 0.013 µM |
| COCCn1c([C@@H](NC(=O)c2cnc(C)cn2)[C@H]2CCCO2)nc2cc(C(F)(F)F)ccc21 (single isomer, unassigned) [Example 19] | 0.003 µM |
| COCCn1c(C(NC(=O)c2cnc(C(F)F)cn2)C2CCOC2)nc2cc(F)ccc21 (single isomer, unassigned) [Example 48-2, 5-(difluoromethyl)-N-{[5-fluoro-1-(2-methoxyethyl)-1H-1,3-benzodiazol-2-yl](oxolan-3-yl)methyl} pyrazine-2-carboxamide] | 0.06 µM |
| Cc1cnc(C(=O)N[C@H](c2nc3cc(C(F)(F)F)ccc3n2C)[C@H]2CCCO2)cn1 (single isomer, unassigned) [Example 56] | 0.013 µM |
| COCCn1c(C(NC(=O)c2cnc(C)cn2)C2CCOC2)nc2cc(OC(F)(F)F)ccc21 (single isomer, unassigned) [Example 62-2, N-{[1-(2-methoxyethyl)-5-(trifluoromethoxy)-1H-1,3-benzodiazol-2-yl](oxolan-3-yl)methyl}-5-methylpyrazine-2-carboxamide] | 0.028 µM |
| CCn1c(C(NC(=O)c2cnc(C)cn2)C2CCOC2)nc2cc(OC(F)(F)F)ccc21 (single isomer, unassigned) [Example 70-2, N-{[1-ethyl-5-(trifluoromethoxy)-1H-1,3-benzodiazol-2-yl](oxolan-3-yl)methyl}-5-methylpyrazine-2-carboxamide] | 0.02 µM |
| CCn1c([C@@H](NC(=O)c2cnc(C)cn2)[C@H]2CCOC2)nc2cc(OC(F)(F)F)ccc21 (single isomer, unassigned) [Example 70] | 0.012 µM |
| COCCn1c(C(NC(=O)c2cnc(C)cn2)C2CCCO2)nc2cc(C(F)(F)F)ccc21 (single isomer, unassigned) [Example 71-2, N-{[1-(2-methoxyethyl)-5-(trifluoromethyl)-1H-1,3-benzodiazol-2-yl](oxolan-2-yl)methyl}-5-methylpyrazine-2-carboxamide] | 0.003 µM |
| COCCn1c([C@@H](NC(=O)c2cnc(C)cn2)[C@H]2CCCO2)nc2cc(C(F)(F)F)ccc21 (single isomer, unassigned) [Example 71] | 0.013 µM |
| Cc1cnc(C(=O)N[C@H](c2nc3cc(C(F)(F)F)ccc3n2C)[C@H]2CCCO2)cn1 (single isomer, unassigned) [Example 75] | 0.019 µM |
| Cc1cnc(C(=O)NC(c2nc3cc(OC(F)(F)F)ccc3n2C)C2CCCOC2)cn1 (single isomer, unassigned) [Example 78-2, 5-methyl-N-{[1-methyl-5-(trifluoromethoxy)-1H-1,3-benzodiazol-2-yl](oxan-3-yl)methyl]pyrazine-2-carboxamide] | 0.025 µM |
| Cc1cnc(C(=O)NC(c2nc3cc(C(F)(F)F)ccc3n2C)C2CCCOC2)cn1 (single isomer, unassigned) [Example 82-2, 5-methyl-N-{[1-methyl-5-(trifluoromethyl)-1H-1,3-benzodiazol-2-yl](oxan-3-yl)methyl}pyrazine-2-carboxamide] | 0.032 µM |
| COCCn1c(C(NC(=O)c2cnc(C)cn2)C2CCOC2)nc2cc(C(F)(F)F)ccc21 (single isomer, unassigned) [Example 87-1, N-{[1-(2-methoxyethyl)-5-(trifluoromethyl)-1H-1,3-benzodiazol-2-yl](oxolan-3-yl)methyl}-5-methylpyrazine-2-carboxamide] | 0.021 µM |
| COCCn1c(C(NC(=O)c2cnc(C)cn2)C2CCOC2)nc2cc(Cl)ccc21 (single isomer, unassigned) [Example 91-1, N-{[5-chloro-1-(2-methoxyethyl)-1H-1,3-benzodiazol-2-yl](oxolan-3-yl)methyl}-5-methylpyrazine-2-carboxamide] | 0.032 µM |
| CCn1c(C(NC(=O)c2cnc(C)cn2)C2CCOC2)nc2cc(OC(F)(F)F)ccc21 (single isomer, unassigned) [Example 97-1, N-{[1-ethyl-5-(trifluoromethoxy)-1H-1,3-benzodiazol-2-yl](oxolan-3-yl)methyl}-5-methylpyrazine-2-carboxamide] | 0.012 µM |
| COCCn1c(C(NC(=O)c2cnc(C)cn2)C2CCCOC2)nc2cc(C(F)(F)F)ccc21 (single isomer, unassigned) [Example 103-1, N-{[1-(2-methoxyethyl)-5-(trifluoromethyl)-1H-1,3-benzodiazol-2-yl](oxan-3-yl)methyl}-5-methylpyrazine-2-carboxamide] | 0.022 µM |
| CCn1c(C(NC(=O)c2cnc(C)cn2)C2CCOC2)nc2cc(C(F)(F)F)ccc21 (single isomer, unassigned) [Example 139, N-{[1-ethyl-5-(trifluoromethyl)-1H-1,3-benzodiazol-2-yl](oxolan-3-yl)methyl}-5-methylpyrazine-2-carboxamide] | 0.011 µM |
| Cc1cnc(C(=O)NC(c2nc3cc(C(F)(F)F)ccc3n2CC(F)F)C2CCOC2)cn1 (single isomer, unassigned) [Example 141, N-{[1-(2,2-difluoroethyl)-5-(trifluoromethyl)-1H-1,3-benzodiazol-2-yl](oxolan-3-yl)methyl}-5-methylpyrazine-2-carboxamide] | 0.031 µM |
| CCn1c(C(NC(=O)c2cnc(C)cn2)C2CCOC2)nc2cc(F)ccc21 (single isomer, unassigned) [Example 143, N-[(1-ethyl-5-fluoro-1H-1,3-benzodiazol-2-yl)(oxolan-3-yl)methyl]-5-methylpyrazine-2-carboxamide] | 0.066 µM |
| Cc1cnc(C(=O)NC(c2nc3ccc(C(F)(F)F)cc3n2CC(F)F)C2CCOC2)cn1 (single isomer, unassigned) [Example 146, N-{[1-(2,2-difluoroethyl)-6-(trifluoromethyl)-1H-1,3-benzodiazol-2-yl](oxolan-3-yl)methyl}-5-methylpyrazine-2-carboxamid] | 0.016 µM |
| CCn1c(C(NC(=O)c2cnc(C)cn2)C2CCOC2)nc2ccc(C(F)(F)F)cc21 (single isomer, unassigned) [Example 147, N-{[1-ethyl-6-(trifluoromethyl)-1H-1,3-benzodiazol-2-yl](oxolan-3-yl)methyl}-5-methylpyrazine-2-carboxamide] | 0.011 µM |
| CCn1c(C(NC(=O)c2cnc(C)cn2)C2CCOC2)nc2ccc(C(F)(F)F)cc21 (single isomer, unassigned) [Example 148, N-{[1-ethyl-6-(trifluoromethyl)-1H-1,3-benzodiazol-2-yl](oxolan-3-yl)methyl}-5-methylpyrazine-2-carboxamide] | 0.014 µM |
| CCn1c(C(NC(=O)c2cnc(C)cn2)C2CCOC2)nc2cc(F)c(F)cc21 (single isomer, unassigned) [Example 159, N-[(1-ethyl-5,6-difluoro-1H-1,3-benzodiazol-2-yl)(oxolan-3-yl)methyl]-5-methylpyrazine-2-carboxamide] | 0.03 µM |
